In ChEMBL document CHEMBL1201862, “PubChem BioAssay data set” (2004):
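Five concentrations, 48 hours, 96-well plates. GI50 marks 50% less growth.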 The source made the active and inactive calls. Rule as the data show it: active = GI50 up to about 1.1 µM and inactive = higher.

Columns and labels:
Assay in all cases: NCI-60 cell line screen, 48 h
DMS-114 = tested on: DMS-114
786-0 = tested on: 786-0
SK-MEL-28 = tested on: SK-MEL-28
RPMI-8226 = tested on: RPMI-8226
HT-29 = tested on: HT-29
TK-10 = tested on: TK-10
HOP-18 = tested on: HOP-18
SNB-19 = tested on: SNB-19
HCT-116 = tested on: HCT-116
ACHN = tested on: ACHN
UACC-257 = tested on: UACC-257
OVCAR-3 = tested on: OVCAR-3
SNB-75 = tested on: SNB-75
SW-620 = tested on: SW-620
UO-31 = tested on: UO-31
NCI-H522 = tested on: NCI-H522
EKVX = tested on: EKVX
NCI-H23 = tested on: NCI-H23
HOP-92 = tested on: HOP-92
KM12 = tested on: KM12
RXF 631 = tested on: RXF 631
NCI-H226 = tested on: NCI-H226
OVCAR-8 = tested on: OVCAR-8
OVCAR-4 = tested on: OVCAR-4
Malme-3M = tested on: Malme-3M
OVCAR-5 = tested on: OVCAR-5
SK-MEL-2 = tested on: SK-MEL-2
A549 = tested on: A549
MOLT-4 = tested on: MOLT-4
HL-60 = tested on: HL-60
SNB-78 = tested on: SNB-78
HCT-15 = tested on: HCT-15
SF-295 = tested on: SF-295
A498 = tested on: A498
LOX IMVI = tested on: LOX IMVI
LXFL 529 = tested on: LXFL 529
CAKI-1 = tested on: CAKI-1
KM-20L2 = tested on: KM-20L2
K562 = tested on: K562
SF-268 = tested on: SF-268
CCRF-CEM = tested on: CCRF-CEM
DLD-1 = tested on: DLD-1
UACC-62 = tested on: UACC-62
HOP-62 = tested on: HOP-62
COLO 205 = tested on: COLO 205
SR = tested on: SR
SK-OV-3 = tested on: SK-OV-3
HCC 2998 = tested on: HCC 2998
M19-MEL = tested on: M19-MEL
SF-539 = tested on: SF-539
SN12C = tested on: SN12C
XF498 = tested on: XF498
RXF 393 = tested on: RXF 393
SK-MEL-5 = tested on: SK-MEL-5
NCI-H460 = tested on: NCI-H460
U-251 = tested on: U-251
M14 = tested on: M14
IGROV-1 = tested on: IGROV-1
DMS-273 = tested on: DMS-273

Q: What does the source list for `CC(=O)c1ccc(-c2ccc(C(C)=O)s2)s1`?
A: GI50 (DMS-114): 1.43 µM (inactive); GI50 (786-0): > 100 µM (inactive); GI50 (SK-MEL-28): 1.81 µM (inactive); GI50 (RPMI-8226): > 100 µM (inactive); GI50 (HT-29): > 100 µM (inactive); GI50 (TK-10): > 100 µM (inactive); GI50 (HOP-18): > 100 µM (inactive); GI50 (SNB-19): > 100 µM (inactive); GI50 (HCT-116): > 100 µM (inactive); GI50 (ACHN): > 100 µM (inactive); GI50 (UACC-257): > 100 µM (inactive); GI50 (OVCAR-3): > 100 µM (inactive); GI50 (SNB-75): > 100 µM (inactive); GI50 (SW-620): > 100 µM (inactive); GI50 (UO-31): > 100 µM (inactive); GI50 (NCI-H522): > 100 µM (inactive); GI50 (EKVX): > 100 µM (inactive); GI50 (NCI-H23): > 100 µM (inactive); GI50 (HOP-92): > 100 µM (inactive); GI50 (KM12): > 100 µM (inactive); GI50 (RXF 631): > 100 µM (inactive); GI50 (NCI-H226): 19 µM (inactive); GI50 (OVCAR-8): > 100 µM (inactive); GI50 (OVCAR-4): > 100 µM (inactive); GI50 (Malme-3M): > 100 µM (inactive); GI50 (OVCAR-5): > 100 µM (inactive); GI50 (SK-MEL-2): > 100 µM (inactive); GI50 (A549): > 100 µM (inactive); GI50 (MOLT-4): > 100 µM (inactive); GI50 (HL-60): > 100 µM (inactive); GI50 (SNB-78): > 100 µM (inactive); GI50 (HCT-15): > 100 µM; GI50 (SF-295): > 100 µM (inactive); GI50 (A498): 1.94 µM (inactive); GI50 (LOX IMVI): > 100 µM (inactive); GI50 (LXFL 529): > 100 µM (inactive); GI50 (CAKI-1): > 100 µM (inactive); GI50 (KM-20L2): > 100 µM (inactive); GI50 (K562): > 100 µM (inactive); GI50 (SF-268): 1.87 µM (inactive); GI50 (CCRF-CEM): > 100 µM (inactive); GI50 (DLD-1): > 100 µM (inactive); GI50 (UACC-62): > 100 µM (inactive); GI50 (HOP-62): > 100 µM (inactive); GI50 (COLO 205): > 100 µM (inactive); GI50 (SR): > 100 µM (inactive); GI50 (SK-OV-3): > 100 µM (inactive); GI50 (HCC 2998): > 100 µM (inactive); GI50 (M19-MEL): > 100 µM (inactive); GI50 (SF-539): > 100 µM (inactive); GI50 (SN12C): > 100 µM (inactive); GI50 (XF498): > 100 µM (inactive); GI50 (RXF 393): > 100 µM (inactive); GI50 (SK-MEL-5): > 100 µM (inactive); GI50 (NCI-H460): > 100 µM (inactive); GI50 (U-251): > 100 µM (inactive); GI50 (M14): > 100 µM (inactive); GI50 (IGROV-1): > 100 µM (inactive); GI50 (DMS-273): > 100 µM (inactive)
